Drawing on patent US11273168B2, “Methods of treating anxiety by administering a substituted quinolone” (OTSUKA PHARMACEUTICAL CO., LTD., priority 2010, dated 2022), this text covers IC50 for 23 molecules.

Where a name gives a salt, the structure may show the parent alone. Read-outs that look alike come from different tables or passages of the source.

Common to all, as to type: biochemical
The target in experiment [1] is T1, Dopamine (DA) uptake (Rattus norvegicus, UniProt P23977).
T1 construct: The suspension was used as a crude synaptosome fraction; from tissue; host or cells: rat (male Wistar) corpus striatum, crude synaptosome fraction
The experiment can be described thus: Dopamine (DA) uptake inhibitory activity using rat brain synaptosome (corpus striatum). As to conditions: tritium-labeled DA 2 nM, 37° C. ten minutes, read-out: 50% Inhibitory concentration. Here is the method: Measurement of Dopamine (DA) Uptake Inhibitory Activity of Test Compound Using Rat Brain Synaptosome
Male Wistar rats were decapitated, and their brains were removed and dissected to remove the corpus striatum. The separated corpus striatum was placed in a 20-fold weight of a 0.32 molarity (M) sucrose solution and homogenized with a potter homogenizer. The homogenate was centrifuged at 1000 g at 4° C. for 10 minutes, and the supernatant was further centrifuged at 20000 g at 4° C. for 20 minutes. […] The suspension was used as a crude synaptosome fraction.
Uptake reaction was performed using each well of a 96-well round-bottom plate and a 200 μl volume in total of a solution containing pargyline (final concentration: 10 μM) and ascorbic acid (final concentration: 0.2 mg/mil).
(§1) Specifically, a solvent, unlabeled DA, and serially diluted test compounds were separately added to the wells, and the synaptosome fraction was added in an amount 1/10 of the final volume to each well and preincubated at 37° C. for 10 minutes. Then, a tritium-labeled DA solution (final concentration: 2 nM) was added thereto to initiate uptake reaction at 37° C. Ten minutes later, the uptake reaction was terminated by suction filtration through a 96-well glass fiber filter plate. Furthermore, the filter was washed with a cold saline and then sufficiently dried. MicroScint-O (PerkinElmer Co., Ltd.) was added thereto, and the residual radioactivity on the filter was measured.
An uptake value obtained by the addition of only the solvent was defined as 100%, and an uptake value (nonspecific uptake value) obtained by the addition of the unlabeled DA (final concentration: 10 μM) was defined as 0%. A 50% inhibitory concentration was calculated from the test compound concentrations and inhibitory activities thereat.

Experiment [2] deals with T2, Serotonin (5-HT) uptake (Rattus norvegicus, UniProt P31652).
T2 construct: The suspension was used as a crude synaptosome fraction; from tissue; host or cells: rat (male Wistar) frontal cortex, crude synaptosome fraction
The experiment can be described thus: Serotonin (5-HT) uptake inhibitory activity using rat brain synaptosome (frontal cortex). As to conditions: tritium-labeled 5-HT 8 nM, 37° C. 10 minutes. The method, then: Measurement of Serotonin (5-HT) Uptake Inhibitory Activity of Test Compound Using Rat Brain Synaptosome
Male Wistar rats were decapitated, and their brains were removed and dissected to remove the frontal cortex. The separated frontal cortex was placed in a 20-fold weight of a 0.32 molarity (M) sucrose solution and homogenized with a potter homogenizer. The homogenate was centrifuged at 1000 g at 4° C. for 10 minutes, and the supernatant was further centrifuged at 20000 g at 4° C. for 20 minutes. […] The suspension was used as a crude synaptosome fraction.
(§2) Uptake reaction was performed using each well of a 96-well round-bottom plate and a 200 μl volume in total of a solution containing pargyline (final concentration: 10 μM) and ascorbic acid (final concentration: 0.2 mg/ml).
as §1, with “5-HT,” for “DA,”, “5-HT” for “DA”, “8” for “2”, “10” for “Ten”
An uptake value obtained by the addition of only the solvent was defined as 100%, and an uptake value (nonspecific uptake value) obtained by the addition of the unlabeled 5-HT (final concentration: 10 μM) was defined as 0%. A 50%, inhibitory concentration was calculated from the test compound concentrations and inhibitory activities thereat.

In experiment [3] the target is Norepinephrine (NE) uptake (Rattus norvegicus, UniProt Q9WTR4). In words: Norepinephrine (NE) uptake inhibitory activity using rat brain synaptosome (hippocampus). The method, then: Measurement of Norepinephrine (NE) Uptake Inhibitory Activity of Test Compound Using Rat Brain Synaptosome
Male Wistar rats were decapitated, and their brains were removed and dissected to remove the hippocampus. The separated hippocampus was placed in a 20-fold weight of a 0.32 molarity (M) sucrose solution and homogenized with a potter homogenizer. The homogenate was centrifuged at 1000 g at 4° C. for 10 minutes, and the supernatant was further centrifuged at 20000 g at 4° C. for 20 minutes. The pellet was suspended in an incubation buffer (20 mM HEPES buffer (pH 7.4) containing 10 mM glucose, 145 mM sodium chloride, 4.5 mM potassium chloride, 1.2 mM magnesium chloride, and 1.5 mM calcium chloride). The suspension was used as a crude synaptosome fraction.
as §2
as §1, with “NE,” for “DA,”, “NE” for “DA”, “12” for “2”
An uptake value obtained by the addition of only the solvent was defined as 100%, and an uptake value (nonspecific uptake value) obtained by the addition of the unlabeled NE (final concentration: 10 μM) was defined as 0%. A 50% inhibitory concentration was calculated from the test compound concentrations and inhibitory activities thereat.

The mark [4] stands for this setting: read-out: 50% Inhibitory concentration.
The mark [5] stands for this setting: tritium-labeled NE 12 nM, 37° C. ten minutes, read-out: 50% inhibitory concentration.

T2 sequence (P31652 whole entry): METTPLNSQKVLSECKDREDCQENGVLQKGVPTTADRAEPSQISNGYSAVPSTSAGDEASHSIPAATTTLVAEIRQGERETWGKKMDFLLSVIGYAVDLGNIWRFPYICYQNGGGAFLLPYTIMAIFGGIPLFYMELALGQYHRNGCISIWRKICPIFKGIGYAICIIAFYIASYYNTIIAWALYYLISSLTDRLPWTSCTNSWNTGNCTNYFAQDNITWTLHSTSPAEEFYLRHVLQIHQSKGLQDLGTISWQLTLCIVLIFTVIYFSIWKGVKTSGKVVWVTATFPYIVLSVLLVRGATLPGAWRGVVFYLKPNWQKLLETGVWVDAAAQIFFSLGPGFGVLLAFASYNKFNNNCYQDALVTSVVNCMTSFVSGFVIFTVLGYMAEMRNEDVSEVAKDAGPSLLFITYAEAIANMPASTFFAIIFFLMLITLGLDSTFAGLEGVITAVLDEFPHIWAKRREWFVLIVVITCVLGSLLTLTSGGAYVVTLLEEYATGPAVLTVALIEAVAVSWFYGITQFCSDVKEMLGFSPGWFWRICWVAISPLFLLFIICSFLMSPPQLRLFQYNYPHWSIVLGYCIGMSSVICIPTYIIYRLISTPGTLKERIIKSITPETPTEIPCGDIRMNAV
T1 sequence (P23977 whole entry): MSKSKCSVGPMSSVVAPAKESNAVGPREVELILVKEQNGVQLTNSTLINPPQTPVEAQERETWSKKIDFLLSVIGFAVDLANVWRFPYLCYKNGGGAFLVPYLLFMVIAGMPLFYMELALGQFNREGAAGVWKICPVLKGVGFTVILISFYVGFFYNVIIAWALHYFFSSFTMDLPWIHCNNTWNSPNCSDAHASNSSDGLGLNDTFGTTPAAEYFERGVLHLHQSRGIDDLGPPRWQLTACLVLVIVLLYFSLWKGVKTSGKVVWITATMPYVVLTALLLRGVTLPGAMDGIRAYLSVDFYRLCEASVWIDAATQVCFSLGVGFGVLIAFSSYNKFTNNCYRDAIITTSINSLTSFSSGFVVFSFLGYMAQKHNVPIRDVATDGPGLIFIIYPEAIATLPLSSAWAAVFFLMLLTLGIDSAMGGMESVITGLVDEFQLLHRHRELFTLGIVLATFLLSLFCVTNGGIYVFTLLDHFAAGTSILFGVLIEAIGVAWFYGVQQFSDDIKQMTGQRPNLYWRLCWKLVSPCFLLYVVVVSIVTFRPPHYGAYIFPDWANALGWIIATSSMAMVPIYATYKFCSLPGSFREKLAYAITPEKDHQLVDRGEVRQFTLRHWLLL

As to `CC1(C)CN(c2csc3ccccc23)[C@@H]2CCCC[C@@H]2N1` [Example 717], the IC50 in experiment [1] came out at 60.1 nM; in experiment [2] (setting [4]), 4.2 nM; in experiment [3] (setting [5]) it was 4.8 nM.
Take `C[C@@H]1CN(c2ccc(F)c3ccccc23)[C@H]2CCCC[C@@H]2N1` [Example 1318]: the results for the IC50 in experiment [1], in experiment [2] (setting [4]) and in experiment [3] (setting [5]) were 83.5 nM, 40.7 nM and 6.6 nM, respectively.
The corresponding values for `CC1(C)CN(c2ccc(OC(F)F)c3occc23)[C@@H]2CCCC[C@H]2N1` [Example 983] are 173 nM, 6.5 nM and 47.6 nM.
Turning to `CC1(C)CN(c2ccc3cc(OC(F)F)ccc3c2)[C@H]2CCCC[C@@H]2N1` [Example 867], the IC50 in experiment [1] was determined as 85.7 nM; in experiment [2] (setting [4]), 4.7 nM; in experiment [3] (setting [5]), 11.7 nM.
Take `C[C@@H]1CN(c2ccc(F)c3occc23)[C@H]2CCCC[C@@H]2N1` [Example 1124]: the IC50 was 49.3 nM in experiment [1], 7.1 nM in experiment [2] (setting [4]) and 0.8 nM in experiment [3] (setting [5]).
Take `CC1(C)CN(c2ccc3[nH]c(C#N)cc3c2)[C@@H]2CCCC[C@H]2N1` [Example 993]: the IC50 in experiment [1] stood at 38.6 nM; in experiment [2] (setting [4]), 4.8 nM; in experiment [3] (setting [5]) it was 8.7 nM.
As for `CC1(C)CN(c2csc3ccccc23)[C@H]2CCCC[C@H]2N1` [Example 841], the values for the IC50 in experiment [1], in experiment [2] (setting [4]) and in experiment [3] (setting [5]) were 5.1 nM, 28.1 nM and 0.9 nM, respectively.
Turning to `OCCN1CCN(c2ccc(Cl)c(Cl)c2)[C@H]2CCCC[C@@H]21` (relative stereo) [Example 300], the IC50 in experiment [1] stood at 81.3 nM; in experiment [2] (setting [4]) it was 89.1 nM; in experiment [3] (setting [5]), 9.9 nM.
The matching figures for `CC1(C)CN(c2cccc3sccc23)[C@H]2CCCC[C@H]2N1` [Example 124]: 9.1 nM, 8.5 nM and 0.8 nM.
With `CC1(C)CN(c2cccc3[nH]ncc23)[C@H]2CCCC[C@H]2N1` [Example 778], the IC50 in experiment [1] worked out at 4.9 nM; in experiment [2] (setting [4]) it was 87.5 nM; in experiment [3] (setting [5]), 4.2 nM.
Consider `C[C@@H]1CN(c2ccc3ccc(C#N)cc3c2)[C@H]2CCCC[C@@H]2N1` [Example 1341], for which the IC50 was 113 nM in experiment [1], 6.8 nM in experiment [2] (setting [4]) and 42.7 nM in experiment [3] (setting [5]).
The matching figures for `CN1[C@@H]2CCCC[C@@H]2N(c2cccc3occc23)CC1(C)C` [Example 132]: 3.9 nM, 8.8 nM and 3.1 nM.
`CC1(C)CN(c2cc(F)cc3ccsc23)[C@@H]2CCCC[C@@H]2N1` [Example 621]: the IC50 in experiment [1] amounted to 128 nM; in experiment [2] (50% Inhibitory concentration), 7 nM; in experiment [3] (read-out: 50% inhibitory concentration, tritium-labeled NE 12 nM, 37° C. ten minutes), 0.7 nM.
As to `CC1(C)CN(c2ccc3sccc3c2)[C@@H]2CCCCC[C@@H]2N1` (racemic) [Example 344], the IC50 in experiment [1] was 9.8 nM; in experiment [2] (setting [4]), 6.8 nM; in experiment [3] (setting [5]), 7.5 nM.
The corresponding values for `CC1(C)CN(c2ccnc3[nH]ccc23)[C@H]2CCCC[C@@H]2N1` [Example 586, (4aS,8aS)-3,3-dimethyl-1-(1H-pyrrolo[2,3-b]pyridin-4-yl)decahydroquinoxaline fumarate] are 93 nM, 5.2 nM and 4 nM.
As for `COc1ccc(N2CC3(CCC3)N[C@H]3CCCC[C@H]32)c2ccoc12` [Example 579, (4a′R,8a′S)-4′-(7-methoxybenzofuran-4-yl)octahydro-1′H-spiro[cyclobutane-1,2′-quinoxaline]], the results for the IC50 in experiment [1], in experiment [2] (setting [4]) and in experiment [3] (setting [5]) were 46.5 nM, 4.5 nM and 5.1 nM, respectively.
For `CC1(C)CN(c2ccc(F)c3occc23)[C@H]2CCCC[C@H]2N1` [Example 136], the IC50 in experiment [1] was found to be 7.7 nM; in experiment [2] (setting [4]) it was 1.3 nM; in experiment [3] (setting [5]), 0.5 nM.
The corresponding values for `CN1[C@@H]2CCCC[C@H]2N(c2ccc(Cl)c(Cl)c2)CC1(C)C` [Example 273] are 8.7 nM, 44 nM and 6.8 nM.
Turning to `CC1(C)CN(c2ccc3cc[nH]c3c2)[C@H]2CCCC[C@H]2N1` [Example 2, (4aR,8aS)-1-(1H-indol-6-yl)-3,3-dimethyldecahydroquinoxaline], the IC50 in experiment [1] was found to be 85.9 nM; in experiment [2] (setting [4]), 7.1 nM; in experiment [3] (setting [5]), 4.6 nM.
The corresponding values for `CC1(C)CN(c2cc(F)c(F)c3occc23)[C@@H]2CCCC[C@@H]2N1` [Example 580, (4aS,8aR)-1-(6,7-difluorobenzofuran-4-yl)-3,3-dimethyldecahydroquinoxaline hydrochloride] are 202 nM, 2.5 nM and 5.4 nM.
The matching figures for `CC1(C)CN(c2ccc3sccc3c2)[C@@H]2CCC[C@@H]2N1` (racemic) [Example 7]: 78.9 nM, 1 nM and 9.5 nM.
With `CC1(C)CN(c2ccc(Cl)c(Cl)c2)C2CCCC2N1` (stereo not drawn) [Example 10], the results for the IC50 in experiment [1], in experiment [2] (setting [4]) and in experiment [3] (setting [5]) were 64.8 nM, 6.2 nM and 8.8 nM, respectively.
`CC1(C)CN(c2ccc3cc(C#N)oc3c2)[C@@H]2CCCC[C@@H]2N1` [Example 641]: the IC50 came out at 9.7 nM in experiment [1], 2.2 nM in experiment [2] (setting [4]) and 76 nM in experiment [3] (setting [5]).
